Key:
[1] = canine coronary artery, electrolytic lesion model; Lynch et al., Schaffer et al.; cited from earlier work
[2] = rabbit venous thrombosis; Fioravanti et al. 1993; cited from earlier work
[3] = dog, adjunct to recombinant tissue plasminogen activator; Mellott et al. 1993; cited from earlier work
[4] = rat arteriovenous shunt and venous stasis models; Wong et al. 1996; cited from earlier work
human thrombin = biological target: T1, human thrombin (Homo sapiens, UniProt P00734); experiment: Determination of thrombin IC50 (chromogenic substrate Chromozym TH); type: biochemical
T1 construct: purchased Enzyme Research Laboratories
Description: The ability of compounds to act as inhibitors of human thrombin catalytic activity is assessed by determination of that concentration of test substance that inhibits by 50% (IC50) the ability of human thrombin to cleave the chromogenic substrate Chromozym TH (Tosyl-Gly-Pro-Arg-pNA*Ac, Boehringer Mannheim). Typically, 145 μL human thrombin (0.75 nM, Enzyme Research Laboratories) in a HPB buffer (10 mM HEPES, 100 mM NaCl, 0.05% BSA, 0.1% PEG-8000, pH 7.4) and 5 μL of test substance in DMSO (2% final) are incubated for 60 minutes at room temperature. Following preheating to 37° C. for 5 minutes, to this mixture is added 100 μL of Chromozym TH in HPB buffer. The velocity of Chromozym TH hydrolysis is determined at 37° C. by measuring the initial rate of change of the optical density at OD405 nm every 10 seconds for 5 minutes using a ThermoMax® Kinetic Microplate Reader.

human trypsin = human trypsin (Homo sapiens, UniProt P07477); experiment: Determination of trypsin IC50 (chromogenic substrate S2222); type: biochemical
Description: The ability of compounds to act as inhibitors of human trypsin catalytic activity is assessed by determination of that concentration of test substance that inhibits by 50% (IC50) the ability of human trypsin to cleave the chromogenic substrate S2222 (N-Bz-L-Ile-L-Glu-L-Gly-L-Arg-p-nitroanilide. HCl, DiaPharma). Typically, 145 μL human trypsin (0.5 nM final) in 10 mM HEPES, 150 mM NaCl, 0.1% BSA, and 5 μL of the test substance in DMSO (2% final) are incubated for 60 minutes at room temperature. Following preheating to 37° C. for 5 minutes, to this mixture is added 100 μL of S2222 in HBSA buffer (100 μM final), and the velocity of S2222 hydrolysis is determined at 37° C. by measuring the optical density at OD405 nm every 10 seconds over 5 minutes using a ThermoMax® Kinetic Microplate Reader.

human factor Xa = biological target: T2, human factor Xa (Homo sapiens, UniProt P00742); experiment: Determination of factor Xa IC50 (chromogenic substrate S2765); type: biochemical
T2 construct: human factor Xa (1 nM final, Enzyme Research Laboratories); purchased Enzyme Research Laboratories
Description: The ability of compounds to act as inhibitors of human factor Xa catalytic activity is assessed by determination of that concentration of test substance that inhibits by 50% (IC50) the ability of human factor Xa to cleave the chromogenic substrate S2765 (N-CBz-D-Arg-L-Gly-L-Arg-p-nitroanilide. 2HCl, DiaPharma). Typically, 145 μL human factor Xa (1 nM final, Enzyme Research Laboratories) in 10 mM HEPES, 150 mM NaCl, 0.1% BSA, pH 7.4 (HBSA buffer) and 5 μL of test substance in DMSO (2% final) are incubated for 60 minutes at room temperature. Following preheating to 37° C. for 5 minutes, to this mixture is added […] of S2765 in HBSA buffer. The velocity of S2765 hydrolysis is determined at 37° C. by measuring the initial rate of change of the optical density at OD405 nm every 10 seconds for 5 minutes using a ThermoMax®D Kinetic Microplate Reader.

[5] = various models of arterial and venous thrombosis; Lapatto et al. 1997; cited from earlier work

T2 sequence (P00742 235-488 limits assumed): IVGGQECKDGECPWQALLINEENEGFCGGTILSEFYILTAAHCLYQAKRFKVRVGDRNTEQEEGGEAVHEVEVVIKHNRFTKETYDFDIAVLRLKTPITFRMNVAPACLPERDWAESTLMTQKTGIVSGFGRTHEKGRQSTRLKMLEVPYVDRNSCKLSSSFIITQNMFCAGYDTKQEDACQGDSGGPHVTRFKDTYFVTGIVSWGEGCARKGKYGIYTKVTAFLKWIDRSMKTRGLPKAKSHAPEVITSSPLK
T2 sequence (P00742 41-179 partner limits assumed): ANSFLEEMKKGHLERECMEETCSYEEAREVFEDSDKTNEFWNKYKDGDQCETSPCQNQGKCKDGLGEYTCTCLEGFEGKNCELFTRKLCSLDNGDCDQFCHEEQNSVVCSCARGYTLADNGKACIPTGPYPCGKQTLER

rTAP: recombinant tick anticoagulant peptide, a protein or polypeptide factor Xa inhibitor (YNRLCIKPRDWIDECDSNEGGERAYFRNGKGGCDSFWICPEDHTGADYYSSYRDCFNACI; UniProt P17726 1-60, looked up)
thrombus mass and time to occlusion [1]: reduce thrombus mass and time to occlusion
fibrin deposition [2]: reduce fibrin deposition
clot lysis and acute reocclusion [3]: accelerate the recombinant tissue plasminogen activator mediated clot lysis and prevent acute reocclusion

CC(=N)N1CC[C@H](Oc2ccc([C@H](Cc3ccc4ccc(C(=N)N)cc4c3)C(=O)O)cc2)C1 [DX9065a]
inhibition of thrombus formation [4]: inhibition of thrombus formation was achieved at doses that had little effect on APTT

C[C@@H]1CCC[C@H](C)N1CCCCCN1C(=O)C(c2cc(C(=N)N)ccc2O)Cc2ccccc21 (stereo partly drawn) [Example 2, 3-(1-5-[(2R,6S)-2,6-dimethyltetrahydro-1(2H)-pyridinyl]pentyl-2-oxo-1,2,3,4-tetrahydro-3-quinolinyl)-4-hydroxybenzenecarboximidamide]
IC50 (human thrombin): 1140 nM
IC50 (human trypsin): 562 nM
IC50 (human factor Xa): 20 nM

B1: Antistasin: a potent inhibitor of blood coagulation factor Xa, from the Mexican leech Haementeria officinalis (protein, UniProt P15358 18-136, looked up)
Antistasin: QGPFGPGCEEAGCPEGSACNIITDRCTCSGVRCRMHCPHGFQRSRYGCEFCKCRLEPMKATCDISECPEGMMCSRLTNKCDCKIDINCRKTCPNGLKRDKLGCEYCECRPKRKLIPRLS
antithrombotic activity [5]: displays antithrombotic activity

Reference: patent US6855726B1, “Quinolones as serine protease inhibitors” (Warner-Lambert Company LLC, priority 1998, dated 2005)
